Results on one molecule are retold here after patent US5102877A, “1-azabicyclo[3.2.0]hept-2-ene-2-carboxylic acid compounds” (Fujisawa Pharmaceutical Co., Ltd., priority 1989, dated 1992).

The subject of this assay is S. aureus 6. Description: in vitro Antimicrobial Activity, two-fold agar-plate dilution method. It counts as cell-based. As to conditions: Staphylococcus aureus, heart infusion agar, 10^6 viable cells per ml, 37° C. for 20 hours, read-out: minimal inhibitory concentration (MIC). On the procedure:
in vitro Antimicrobial Activity was determined by the two-fold agar-plate dilution method as described below.
One loopful of an overnight culture of a test strain in Trypticase-soy broth (10^6 viable cells per ml) was streaked on heart infusion agar (HI-agar) containing graded concentrations of the test compound, and the minimal inhibitory concentration (MIC) was expressed in terms of μg/ml after incubation at 37° C. for 20 hours.

For the molecule `C[C@@H](O)[C@H]1C(=O)N2C(C(=O)O)=C(C3CCN(C=N)C3)C[C@H]12` (stereo partly drawn) [Example 12, (5R,6S)-3-(1-formimidoylpyrrolidin-3-yl)-6-[(1R)-1-hydroxyethyl]-7-oxo-1-azabicyclo[3.2.0]hept-2-ene-2-carboxylic acid], the MIC was not above 0.025 µg/mL.
